PMC3125126 (European journal of pharmacology, 2010)
Several values for one entry are separate records, joined by “and”; a condition that tells them apart may be missing. Equal values may be shown once. Read-outs that look alike come from different tables or passages of the source.

Assays:
[1] = molecular target: T1, human dopamine transporter (hDAT) (Homo sapiens, UniProt Q01959); assay type: cell-based; conditions: butaclamol 100 nM added 10 min before uptake, with melittin 30 min pretreatment
[2] = system: phospholipase C activity in HEK-D2-hDAT cells; assay type: cell-based, human
[3] = ref Sugama et al., 2005; Nakamura et al., 2004; cited from earlier work
[4] = system: GTP binding regulatory proteins; conditions: ref Higashijima et al., 1988; cited from earlier work
[5] = molecular target: T1, human dopamine transporter (hDAT); assay: [125I]RTI-55 binding to membranes of HEK-D2-hDAT cells; conditions: no melittin, 4°C, 16 h, 4 independent experiments
dopamine transporter [6] = conditions: ref Chen et al., 2003, cited from earlier work
[7] = system: Ca2+-dependent phospholipase A2; conditions: ref Street et al., 1993; cited from earlier work
[8] = system: Ca2+-independent phospholipase A2; conditions: ref Yang et al., 1999; cited from earlier work
[9] = molecular target: T1, human dopamine transporter (hDAT); assay: Dopamine transporter internalization by biotinylation; assay type: cell-based
dopamine transporter [10] = conditions: ref Daniels and Amara, 1999; cited from earlier work
[11] = system: purified synaptosomes from rat striatum; conditions: rat striatal synaptosomes; ref L'hirondel et al., 1995; cited from earlier work
glutamate uptake = conditions: ref Volterra et al., 1992, 1994; cited from earlier work
[12] = system: rat glutamate transporter, EAAT4; conditions: ref Fairman et al., 1998, Tzingounis et al.; cited from earlier work
dopamine transporter [13] = conditions: ref Ingram and Amara, 2000; cited from earlier work
protein kinase Cγ = conditions: bovine cerebellar cells; ref Shearman et al., 1989; cited from earlier work
[14] = system: phospholipase A2 activity in HEK-D2-hDAT cells; assay: Phospholipase A2 activity after cell treatment; assay type: cell-based, human; conditions: melittin 10 µM and/or quinacrine 10 µM, 30 min; n=3; not significant P>0.05
rat Leydig cells = conditions: ref Ronco et al., 2002; cited from earlier work
[15] = system: rat (ventral tegmental area); conditions: pretreatment with quinacrine; ref Reid et al., 1996; cited from earlier work
HEK-D2-hDAT cells = assay: [3H]Arachidonic acid release from preloaded cells; assay type: cell-based, human; conditions: quinpirole 1 nM to 10 µM; loaded 4 or 24 hours; data not shown

T1 sequence (Q01959 whole entry): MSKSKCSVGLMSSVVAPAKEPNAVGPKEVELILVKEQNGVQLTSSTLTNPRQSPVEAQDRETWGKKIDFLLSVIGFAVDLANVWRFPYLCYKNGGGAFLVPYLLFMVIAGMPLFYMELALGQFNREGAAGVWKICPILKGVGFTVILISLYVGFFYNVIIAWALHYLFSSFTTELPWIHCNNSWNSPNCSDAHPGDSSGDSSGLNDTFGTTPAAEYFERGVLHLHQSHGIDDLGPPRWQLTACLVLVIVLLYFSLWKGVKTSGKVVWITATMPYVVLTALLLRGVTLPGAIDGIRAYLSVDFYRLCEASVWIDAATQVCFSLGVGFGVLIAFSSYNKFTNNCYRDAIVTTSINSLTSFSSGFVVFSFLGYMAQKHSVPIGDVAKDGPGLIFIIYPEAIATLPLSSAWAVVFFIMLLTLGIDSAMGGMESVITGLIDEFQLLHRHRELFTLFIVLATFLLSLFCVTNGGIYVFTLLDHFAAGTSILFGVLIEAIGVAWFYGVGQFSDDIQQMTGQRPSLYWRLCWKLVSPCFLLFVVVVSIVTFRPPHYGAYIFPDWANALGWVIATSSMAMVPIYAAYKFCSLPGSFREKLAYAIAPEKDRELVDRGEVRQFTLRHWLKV

CC(C)(C)[C@]1(O)CCN2C[C@H]3c4ccccc4CCc4cccc(c43)[C@@H]2C1 [butaclamol]
effect of D2 receptor block on [3H]dopamine uptake [1]: no difference in [^3H]dopamine uptake

NCCc1ccc(O)c(O)c1 [dopamine]
inositol phosphate-1 concentration [2]: 8.8 ± 3.0 nM

mastoparan
effect on membrane lipid rafts [3]: disrupts the membrane lipid rafts | stimulation of GTP binding regulatory proteins [4]: stimulate GTP binding regulatory proteins indirectly

NC[C@@H]1O[C@H](O[C@H]2[C@@H](O)[C@H](O[C@@H]3[C@@H](O)[C@H](N)C[C@H](N)[C@H]3O[C@H]3O[C@H](CN)[C@@H](O)[C@H](O)[C@H]3N)O[C@@H]2CO)[C@H](N)[C@@H](O)[C@@H]1O [neomycin]
phospholipase C activity in presence of melittin without or with neomycin ([2]; neomycin 30 µM pretreatment, melittin 1.3 µM, 1 hour): no significant difference

COC(=O)[C@H]1C(c2ccc(I)cc2)C[C@@H]2CC[C@H]1N2C (stereo partly shown) [RTI-55]
RTI-55 Bmax ([5]; protease inhibitors): 6.7 ± 0.8 pmol/mg | Kd ([5]; read-out: RTI-55 KD): 8.3 ± 1.8 nM

CCCCC/C=C\C/C=C\C/C=C\C/C=C\CCCC(=O)OCC [Arachidonic acid ethyl ester]
effect on dopamine transporter function (mimicry of arachidonic acid) (dopamine transporter [6]; Ingram and Amara, 2000): does not mimic the effects of arachidonic acid on dopamine transporter function

CCCCC/C=C\C/C=C\C/C=C\C/C=C\CCCC(=O)C(F)(F)F [Arachidonyl trifluoromethyl ketone]
inhibition of Ca2+-dependent phospholipase A2 [7]: potent and selective inhibitor

CCCCCCCC/C=C\CCCCCCCC(=O)O [oleic, oleic acid]
dopamine uptake by rotating disk electrode voltammetry (dopamine transporter [6]): inhibit dopamine transporter-mediated uptake, although to a lesser degree

O=C1O/C(=C/Br)CCC1c1cccc2ccccc12 (stereo not shown) [4-bromoenol lactone]
inhibition of Ca2+-independent phospholipase A2 [8]: selectively inhibited

COC(=O)[C@H]1[C@@H](OC(=O)c2ccccc2)C[C@@H]2CC[C@H]1N2C [cocaine]
dopamine transporter internalization [9]: 97.8 ± 6.2 % of control and 93.9 ± 8.4 % of control | effect on phorbol ester-induced dopamine transporter internalization (dopamine transporter [10]): does not alter phorbol ester-induced dopamine transporter internalization

CCCCC/C=C\C/C=C\C/C=C\C/C=C\CCCC(=O)O [arachidonic acid]
spontaneous dopamine release, dopamine synthesis and uptake [11]: dose-dependently increases spontaneous release of dopamine and decreases dopamine synthesis and uptake | effect on uptake of glutamate (glutamate uptake): inhibits uptake of glutamate | effect on proton conductance [12]: alters proton conductance | effect on cation conductance (dopamine transporter [13]): directly stimulates a cocaine-sensitive cation conductance | protein kinase Cγ activation (protein kinase Cγ): can activate protein kinase Cγ | dopamine uptake by rotating disk electrode voltammetry (dopamine transporter [6]): decrease in dopamine uptake

CCN(CC)CCCC(C)Nc1c2ccc(Cl)cc2nc2ccc(OC)cc12 (stereo not shown) [quinacrine]
phospholipase A2 activity [14]: 134 ± 19 % compared to control | effect on melittin-induced arachidonic acid release (rat Leydig cells): unable to inhibit melittin-induced release of arachidonic acid | block of melittin-caused sensitization [15]: blocked

CCCN1CCC[C@@H]2Cc3n[nH]cc3C[C@H]21 [quinpirole]
release of loaded [3H]arachidonic acid (HEK-D2-hDAT cells): less than 0.4% | inositol phosphate-1 concentration ([2]; quinpirole 1 µM, 1 hour, basal 8.3 ± 2.5 nM, n=3, not significant P>0.05): 11.1 ± 2.0 nM

CCCCC/C=C\C/C=C\CCCCCCCC(=O)O [linoleic acid]
dopamine uptake by rotating disk electrode voltammetry (dopamine transporter [6]): inhibit dopamine transporter-mediated uptake, although to a lesser degree
